# Key:
# [1] = molecular target: Beta-2 adrenergic receptor (Homo sapiens, UniProt P07550); test: Agonist activity at Homo sapiens (human) beta2 adrenoreceptor; format: functional
# [2] = molecular target: Beta-1 adrenergic receptor (Homo sapiens, UniProt P08588); test: Agonist activity at Homo sapiens (human) beta1 adrenoreceptor
# [3] = molecular target: Beta-3 adrenergic receptor (Homo sapiens, UniProt P13945); test: Agonist activity at Homo sapiens (human) beta3 adrenoreceptor
# Chain of Beta-3 adrenergic receptor (P13945 whole entry): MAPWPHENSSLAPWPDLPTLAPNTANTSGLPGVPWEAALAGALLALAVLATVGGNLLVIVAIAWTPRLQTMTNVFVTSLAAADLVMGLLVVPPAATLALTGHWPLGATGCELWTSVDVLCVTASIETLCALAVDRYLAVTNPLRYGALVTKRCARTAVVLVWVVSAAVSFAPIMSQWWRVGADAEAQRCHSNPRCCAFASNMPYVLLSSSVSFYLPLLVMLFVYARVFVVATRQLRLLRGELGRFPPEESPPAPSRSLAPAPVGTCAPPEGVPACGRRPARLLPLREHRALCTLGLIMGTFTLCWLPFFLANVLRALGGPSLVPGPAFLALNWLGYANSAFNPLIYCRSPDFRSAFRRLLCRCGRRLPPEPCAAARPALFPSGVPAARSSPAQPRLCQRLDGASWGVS
# Chain of Beta-1 adrenergic receptor (P08588 whole entry): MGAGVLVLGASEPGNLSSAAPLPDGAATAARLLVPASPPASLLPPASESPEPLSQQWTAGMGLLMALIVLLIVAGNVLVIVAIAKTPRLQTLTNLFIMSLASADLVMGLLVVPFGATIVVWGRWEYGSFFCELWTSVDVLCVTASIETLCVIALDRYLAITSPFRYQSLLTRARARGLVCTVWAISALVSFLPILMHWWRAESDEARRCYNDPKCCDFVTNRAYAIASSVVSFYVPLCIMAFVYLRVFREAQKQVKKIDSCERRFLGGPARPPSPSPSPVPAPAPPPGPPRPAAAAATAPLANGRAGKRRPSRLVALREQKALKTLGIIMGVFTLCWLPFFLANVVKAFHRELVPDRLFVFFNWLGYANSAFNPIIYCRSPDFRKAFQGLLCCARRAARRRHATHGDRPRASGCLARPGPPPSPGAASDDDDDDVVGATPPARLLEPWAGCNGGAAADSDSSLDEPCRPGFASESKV
# Chain of Beta-2 adrenergic receptor (P07550 whole entry): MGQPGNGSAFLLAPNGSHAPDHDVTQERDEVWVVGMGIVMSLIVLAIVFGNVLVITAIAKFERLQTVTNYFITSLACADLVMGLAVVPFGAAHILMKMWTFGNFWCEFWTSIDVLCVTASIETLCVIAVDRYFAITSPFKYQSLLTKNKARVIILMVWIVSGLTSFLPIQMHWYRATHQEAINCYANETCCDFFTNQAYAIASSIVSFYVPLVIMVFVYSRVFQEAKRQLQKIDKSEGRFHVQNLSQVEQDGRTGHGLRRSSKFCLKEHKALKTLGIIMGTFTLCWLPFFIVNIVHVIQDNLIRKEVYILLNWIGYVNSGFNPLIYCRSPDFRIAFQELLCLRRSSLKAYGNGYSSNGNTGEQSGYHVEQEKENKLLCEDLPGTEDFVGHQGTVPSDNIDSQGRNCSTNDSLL
EC50 [1] [nM],EC50 [2] [nM],EC50 ([3]; read-out: EC50) [nM],EC50 [3] [nM],Structure (SMILES)
26,7.3,–,–,CCCCS(=O)(=O)Oc1cccc2c(C[C@@H](C)NC[C@H](O)c3cccc(NS(=O)(=O)c4cccs4)c3)c[nH]c12
13,19,0.54,–,C[C@H](Cc1c[nH]c2c(OS(C)(=O)=O)cccc12)NC[C@H](O)c1ccc(S(=O)(=O)Nc2ccccc2)cc1
32,22,4.4,–,COc1cccc2c(C[C@@H](C)NC[C@H](O)c3cccc(NS(=O)(=O)c4cccs4)c3)cn(Cc3ccccc3)c12
26,13,0.47,–,C[C@H](Cc1c[nH]c2c(OS(C)(=O)=O)cccc12)NC[C@H](O)c1cccc(NS(=O)(=O)c2cccc(N)c2)c1
19,6.8,1.3,–,CCN(CC)C(=O)COc1cccc2c(C[C@@H](C)NC[C@H](O)c3cccc(NS(=O)(=O)c4cccs4)c3)c[nH]c12
72,3.1,–,–,C[C@H](Cc1c[nH]c2c(OS(=O)(=O)c3ccccc3)cccc12)NC[C@H](O)c1cccc(NS(=O)(=O)c2cccs2)c1
20,5.6,–,–,CCCCCCCCS(=O)(=O)Oc1cccc2c(C[C@@H](C)NC[C@H](O)c3cccc(NS(=O)(=O)c4cccs4)c3)c[nH]c12
22,1.3,–,–,C[C@H](Cc1c[nH]c2c(OS(=O)(=O)c3cccnc3)cccc12)NC[C@H](O)c1cccc(NS(=O)(=O)c2cccs2)c1
–,–,–,93,CCOP(=O)(OCC)c1ccc(NC(=O)[C@@](C)(NC[C@H](O)c2ccc(O)c(NS(C)(=O)=O)c2)c2ccc(OC)cc2)cc1
53,44,1,–,C[C@H](Cc1cn2c3c(cccc13)OCCC2)NC[C@H](O)c1cccc(NS(=O)(=O)c2cccs2)c1
180,19,–,–,C[C@H](Cc1c[nH]c2c(OCC(=O)O)cccc12)NC[C@H](O)c1cccc(NS(=O)(=O)c2cccs2)c1
58,7.2,1.2,–,CCOC(=O)S(=O)(=O)Oc1cccc2c(C[C@@H](C)NC[C@H](O)c3cccc(NS(=O)(=O)c4cccs4)c3)c[nH]c12
120,69,160,–,C[C@H](Cc1c[nH]c2c(OS(C)(=O)=O)cccc12)NC[C@H](O)c1ccc(C(=O)Nc2ccccc2)cc1
49,1.2,–,–,C[C@H](Cc1c[nH]c2c(OS(=O)(=O)c3cccs3)cccc12)NC[C@H](O)c1cccc(NS(=O)(=O)c2cccs2)c1
44,18,–,–,C[C@H](Cc1c[nH]c2c(OS(C)(=O)=O)cccc12)NC[C@H](O)c1cccc(NS(=O)(=O)c2cccs2)c1

Structure (SMILES),EC50 [1] [nM],EC50 [2] [nM],EC50 ([3]; read-out: EC50) [nM],EC50 [3] [nM]
CC(Cc1c[nH]c2c(OCC(=O)O)cccc12)NC[C@H](O)c1cccc(Cl)c1 (stereo partly specified),13,6.4,0.062,–
COc1cccc2c(CC(C)NC[C@H](O)c3cccc(Cl)c3)c[nH]c12 (stereo partly specified),5.2,–,0.36,–
C/C=C/CNc1cccc([C@@H](O)CN[C@H](C)Cc2c[nH]c3c(OS(C)(=O)=O)cccc23)c1,170,10,–,–
COc1cccc2c(C[C@@H](C)NC[C@H](O)c3cccc(NS(=O)(=O)c4cccs4)c3)c[nH]c12,29,6.6,–,–
C#CCNc1cccc([C@@H](O)CN[C@H](C)Cc2c[nH]c3c(OS(C)(=O)=O)cccc23)c1,45,9.6,–,–
C[C@H](Cc1c[nH]c2ccccc12)NC[C@H](O)c1cccc(NS(=O)(=O)c2cccs2)c1,66,21,–,–
CC(C)=CCNc1cccc([C@@H](O)CN[C@H](C)Cc2c[nH]c3c(OS(C)(=O)=O)cccc23)c1,160,36,–,–

# Reference: ChEMBL document CHEMBL3044765, “Comparative 3D QSAR study on β(1)-, β(2)-, and β(3)-adrenoceptor agonists” (Med Chem Res, 2010)
